Data reported in patent publication US6890900B2, “Methods for treating or preventing diseases of the oral cavity” (Campina B.V., priority 2001, dated 2005).

Columns and labels:
Test in all cases: LF/GMP assay, viable plate count (pour plate) of broth culture
Assay type in all cases: cell-based
Conditions in all cases: for Log Difference: sialic acid 1,000 ppm vs 0 ppm, + = more growth
[1] = system: Streptococcus mutans ATCC #33535
Method: (§1) Bacterial strains used in this study were Pseudomonas aeruginosa ATCC #27853, Streptococcus mutans ATCC #33535, Streptococcus pyogenes ATCC #19615, and Actinobacillus haemophilus ATCC #43717 and an oral swab from a healthy adult. Bacteria were grown on blood/BHT media (Brain Heart Infusion Agar with protease peptone, sodium chloride, glucose, di-sodium phosphate, and agar, Oxoid, Hampshire England, Sheep's Blood) in the presence of 5% CO2 at 35° C. […] One ml of the appropriate bacterial dilution was taken using a sterile pipette and introduced into 8 ml of sterilized BHI broth. […] By pipette, 9 ml of broth was placed into medium test tubes as means of a control and 8 ml test tubes were prepared for the concentration tests). […] This solution was filtered through a 0.45 μm filter. […] To study the kinetics of LF/GMP binding, each strain of bacteria was taken separately with a sterile pipette and placed into an 8 ml BHI broth test tube, vortexed, and incubated in the presence of 1 ml of LF or GMP for 18-24 hours at 35° C. with 5% CO2. In the combination procedure, 0.5 ml of both LF and […] were taken as 1 ml inoculations. One mL of each bacterial strain, plus one mL of sialic acid solution (1,000 ppm) were inoculated into test tubes filled with 8 mL of BHI broth. Each test tube was vortexed, incubated for 24 hours at 35° C. with 5% CO2, and then pour plated in BHI agar to obtain a plate count. This technique was used to determine the density of living (viable) cells in inoculated broth cultures. It involves plating a bacterial sample and counting the resulting colonies after incubation. A serial dilution of the original broth was taken prior to plating. The serial dilution is necessary to reduce the density of organisms in order to create countable plates. Only plates containing between 25 and 250 colonies are considered countable. Cell densities are traditionally recorded as CFU (colony forming unit)/ml. […] Formula: [formula] The assays required the use of a pour plate technique. The pour plate technique adds a step to the conventional serial dilution. The 1 ml of dilution is added to a warm emulsion of dilute nutrient (BHI) agar to produce an agar overlay in the petri plates. After incubation, the bacterial growth covers the entire plate but individual cellular movement has been restricted by the soft agar overlay. Each colony formed is assumed to have originated from a single CFU. The plates were gently mixed, inverted, and incubated for 18-24 hour at 35° C. Using a control (one broth tube inoculated with a bacterial strain, but no LF), the effectiveness of LF was examined. Each test tube containing a specified amount of LF (50, 100, 250, 500, 1,000 ppm and 3000 ppm) was diluted and plates were poured. […] A. haemophilus, S. mutans, S. pyrogenes and an oral culture were tested at 35° C. Pseudomonas aeruginosa was tested at both room temperature and 35° C. with 5% CO2. This was done because P. aeruginosa is not strictly an oral pathogen. It is commonly found in the environment in various conditions. It can be found in the environment and oral intake can cause inflammation in the oral cavity. Most normal oral bacteria are only found in the mouth and are not taken in from outside factors. Therefore, P. aeruginosa is a threat in both temperature settings. […] (see Table 2).

[2] = system: Actinobacillus haemophilus ATCC #43717
Method: as §1

[3] = system: Pseudomonas aeruginosa ATCC #27853
Method: Bacterial strains used in this study were Pseudomonas aeruginosa ATCC #27853, Streptococcus mutans ATCC #33535, Streptococcus pyogenes ATCC #19615, and Actinobacillus haemophilus ATCC #43717 and an oral swab from a healthy adult. Bacteria were grown on blood/BHT media (Brain Heart Infusion Agar with protease peptone, sodium chloride, glucose, di-sodium phosphate, and agar, Oxoid, Hampshire England, Sheep's Blood) in the presence of 5% CO2 at 35° C. Bacteria were harvested by swabbing inoculated growth plates after 24 hours and diluting the colonies in 9 ml of deionized water (DI water) until a suspension of 0.5 McFarland Turbidity Standard was reached using the nephelometer (McFarland Turbidity Meter). The 0.5 McFarland value is approximately equivalent to 1.0×10^8 organisms. One ml of the appropriate bacterial dilution was taken using a sterile pipette and introduced into 8 ml of sterilized BHI broth. (Preparation of BHI broth: 37 g+1,000 ml DI water, Difco Laboratories. By pipette, 9 ml of broth was placed into medium test tubes as means of a control and 8 ml test tubes were prepared for the concentration tests).
This solution was filtered through a 0.45 μm filter. […] Example for calculating 2,500 ppm dilution (1,000 ppm=0.1%): [formula] [formula] [formula] […]
One mL of each bacterial strain, plus one mL of sialic acid solution (1,000 ppm) were inoculated into test tubes filled with 8 mL of BHI broth. Each test tube was vortexed, incubated for 24 hours at 35° C. with 5% CO2, and then pour plated in BHI agar to obtain a plate count.
This technique was used to determine the density of living (viable) cells in inoculated broth cultures. It involves plating a bacterial sample and counting the resulting colonies after incubation. A serial dilution of the original broth was taken prior to plating. The serial dilution is necessary to reduce the density of organisms in order to create countable plates. Only plates containing between 25 and 250 colonies are considered countable. Cell densities are traditionally recorded as CFU (colony forming unit)/ml. By convention, when 1.0 ml is inoculated onto a plate, the dilution factor (DF) is recorded as tenfold greater. Formula: [formula]
The assays required the use of a pour plate technique. The pour plate technique adds a step to the conventional serial dilution. The 1 ml of dilution is added to a warm emulsion of dilute nutrient (BHI) agar to produce an agar overlay in the petri plates. After incubation, the bacterial growth covers the entire plate but individual cellular movement has been restricted by the soft agar overlay. Each colony formed is assumed to have originated from a single CFU. The plates were gently mixed, inverted, and incubated for 18-24 hour at 35° C. […]

[4] = 24 hours at 35° C. with 5% CO2, listed as Sialic acid
[5] = sialic acid 1,000 ppm, 24 hours at 35° C. with 5% CO2
[6] = sodium bicarbonate pH 4.36, column 1,000 ppm

For `CC(=O)N[C@H]1[C@H]([C@H](O)[C@H](O)CO)OC(O)(C(=O)O)C[C@@H]1O` (stereo partly drawn) [Sialic Acid, N-acetylneuraminic acid, reference compound], the “Log Difference” value ([1]; 24 hours at 35° C. with 5% CO2) was 0 log, the “Log Difference” value [1, 4] was “did not reduce the bacterial growth” and the plate count [1, 5] was 5.4 × 10^7. For the same molecule, the “Log Difference” value ([2]; 24 hours at 35° C. with 5% CO2) was 0 log, the “Log Difference” value [2, 4] was “did not reduce the bacterial growth” and the plate count [2, 5] was 2.9 × 10^8. The “Log Difference” value ([3]; 24 hours at 35° C. with 5% CO2) was “^+1 log”, the “Log Difference” value [3, 4] was “increased the amount of bacterial growth by one log” and the plate count [3, 5] was 1.0 × 10^9.

In the case of `O=C([O-])O.[Na+]` [Sodium Bicarbonate, Sodium bicarbonate], the pour plate count [1, 6] was 8.4 × 10^7, the pour plate count [2, 6] was 1.9 × 10^8 and the pour plate count [3, 6] was 6.0 × 10^6.
